Experimental data as given in patent US7125869B2, “Polycyclic compounds which modulate PPARγ type receptors and cosmetic/pharmaceutical compositions comprised thereof” (Galderma Research & Development, priority 2002, dated 2006).

These compounds were tested against T1, PPARγ (Homo sapiens, UniProt P37231) (assay: Crossover-curve PPAR transactivation test (HeLN cells, luciferase reporter), PPARγ). Settings: HeLN cells stably transfected with Gal-hPPARγ; Schild regression against reference agonist; n.a. means not active; read-out: PPARγ Kd app.
T1 construct: Either way it is a handle, not a second protein
T1 sequence (P37231 238-505 limits assumed): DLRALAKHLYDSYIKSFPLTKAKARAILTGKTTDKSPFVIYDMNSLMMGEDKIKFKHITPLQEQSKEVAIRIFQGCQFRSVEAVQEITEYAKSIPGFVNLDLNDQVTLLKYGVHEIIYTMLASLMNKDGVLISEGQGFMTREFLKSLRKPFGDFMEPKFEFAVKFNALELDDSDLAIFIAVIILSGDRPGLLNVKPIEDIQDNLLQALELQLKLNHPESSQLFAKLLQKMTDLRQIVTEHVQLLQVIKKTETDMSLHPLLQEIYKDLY
Type: cell-based
Protocol: The activation of receptors with an agonist (activator) in HeLN cells leads to the expression of a reporter gene, luciferase, which, in the presence of a substrate, generates light. The modulation of the receptors is measured by quantifying the luminescence produced after incubating the cells in the presence of a reference agonist. The ligands displace the agonist from its site. The measurement of the activity is performed by quantifying the light produced. This measurement makes it possible to determine the modulatory activity of the compounds according to the invention by determining the constant that is the affinity of the molecule for the receptor. Since this value can fluctuate depending on the basal activity and the expression of the receptor, it is referred to as Kd apparent (KdApp in nM).
To determine this constant, “crossover curves” of the test product against a reference agonist are performed in a 96-well plate: 10 concentrations of the test product plus a concentration 0 are arranged in a line, and 7 concentrations of the agonist plus a concentration 0 are arranged in a column. This is 88 measurement points for 1 product and 1 receptor. The remaining 8 wells are used for repeatability controls.
Measurements are also taken for total agonist controls with the same products.
The HeLN cell lines used are stable transfectants containing the plasmids ERE-βGlob-Luc-SV-Neo (reporter gene) and PPAR (α, δ, γ) Gal-hPPAR. These cells are inoculated into 96-well plates at a rate of 10 000 cells per well in 100 μl of DMEM medium without phenol red and supplemented with 10% of defatted calf serum. The plates are then incubated at 37° C. and 7% CO2 for 16 hours.
The various dilutions of the test products and of the reference ligand are added at a rate of 5 μl per well. The plates are then incubated for 18 hours at 37° C. and 7% CO2. The culture medium is removed by turning over and 100 μl of a 1:1 PBS/luciferine mixture are added to each well. After 5 minutes, the plates are read by the luminescence detector.

Row | Compound | Kd
1 | CCCCCCCC(=O)N(C)Cc1cccc(-c2ccc(N(C)c3ccccc3C(=O)O)cc2)c1 [Example 8, 2-(methyl-{3′-[(methyloctanoylamino)methyl]biphenyl-4-yl}amino)benzoic acid] | 250 nM
2 | COCCOCOc1ccc2cc(C(=O)N(C)Cc3cccc(-c4ccc(Nc5cccc(C(=O)N6CCC(C)CC6)c5)cc4)c3)ccc2c1 [Example 16, N-methyl-N-{4′-[3-(4-methylpiperidine-1-carbonyl)phenylamino]biphenyl-3-ylmethyl}-6-(2-methoxyethoxymethoxy)naphthalene-2-carboxylamide] | 120 nM
3 | COCCOCOc1ccc2cc(C(=O)N(C)Cc3cccc(-c4ccc(Nc5cccc(C(=O)N6CCOCC6)c5)cc4)c3)ccc2c1 [Example 17] | 500 nM
